Measured values from patent US11292971B2, “Dissolution of hexamine in non-aqueous solvent” (ECOLAB USA INC., priority 2017, dated 2022).

Assays:
[1] = 20° C., cited from earlier work
[2] = Dissolution of hexamine in cinnamyl alcohol and glycerin: slurry left two days, clear supernatant analyzed for composition; type: physicochemical; conditions: about room temperature
Experimental: Slurries were prepared by mixing hexamine in cinnamyl alcohol or a mixture of cinnamyl alcohol and glycerin at about room temperature. The compositions were then allowed to sit undisturbed for two days and the clear supernatant decanted off and analyzed for composition. As the results below illustrate, clear stable solutions of hexamine in various ratios of glycerin and cinnamyl alcohol were obtained.

Hexamine in stable solution ([2]; cinnamyl alcohol 16, glycerin (<1% water) 76 weight %): 8 Weight %
Hexamine in stable solution ([2]; cinnamyl alcohol 32, glycerin (<1% water) 63 weight %): 5 Weight %
Hexamine in stable solution ([2]; cinnamyl alcohol 37, glycerin (<1% water) 55 weight %): 8 Weight %
Hexamine in stable solution ([2]; cinnamyl alcohol 50, glycerin (<1% water) 43 weight %): 7 Weight %
Hexamine in stable solution ([2]; cinnamyl alcohol 59, glycerin (<1% water) 34 weight %): 7 Weight %
Hexamine in stable solution ([2]; cinnamyl alcohol 68, glycerin (<1% water) 22 weight %): 10 Weight %
Hexamine in stable solution ([2]; cinnamyl alcohol 78, glycerin (<1% water) 11 weight %): 11 Weight %
Hexamine in stable solution ([2]; cinnamyl alcohol 84, glycerin (<1% water) 6 weight %): 10 Weight %
Hexamine in stable solution ([2]; cinnamyl alcohol 93, glycerin (<1% water) 0 weight %): 7 Weight %
Compound: C1N2CN3CN1CN(C2)C3 [Hexamine, 1,3,5,7-tetraazatricyclo[3.3.1.1^3,7]decane]
solubility in acetone ([1]; acetone): 0.65 g
solubility in benzene ([1]; benzene): 0.23 g
solubility in chloroform ([1]; chloroform): 13.4 g
solubility in ethanol ([1]; ethanol): 2.89 g
solubility in ether ([1]; ether): 0.06 g
solubility in methanol ([1]; methanol): 7.25 g
solubility in petroleum ether ([1]; petroleum ether): near zero
solubility in xylene ([1]; xylene): 0.14 g
